Data taken from patent US6455510B1, “Chemical Compounds” (SmithKline Beecham Corporation, priority 1997, dated 2002).

Columns and labels:
[1] = target: T1, human adenosine A3 receptor (Homo sapiens, UniProt P0DMS8); test: Reporter gene assay (CRE/SPAP) in CHO cells, agonist activity, adenosine A3; assay type: cell-based; settings: CHO cells stably transfected with human adenosine A3 receptor; inhibition of forskolin-stimulated SPAP production; potency relative to NECA=1
T1 construct: expressed in transfected cells; host or cells: Chinese hamster ovary (CHO) cells containing CRE/SPAP/HYG reporter elements
T1 sequence (P0DMS8 1-318): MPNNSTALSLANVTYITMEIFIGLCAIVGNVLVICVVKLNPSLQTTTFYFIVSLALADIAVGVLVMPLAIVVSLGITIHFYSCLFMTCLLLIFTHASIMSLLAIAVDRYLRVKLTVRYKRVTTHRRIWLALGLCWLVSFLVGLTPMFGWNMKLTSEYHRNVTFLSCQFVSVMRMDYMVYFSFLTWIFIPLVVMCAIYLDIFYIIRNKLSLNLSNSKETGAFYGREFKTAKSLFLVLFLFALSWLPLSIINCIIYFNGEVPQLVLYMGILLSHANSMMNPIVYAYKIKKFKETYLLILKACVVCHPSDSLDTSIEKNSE
Procedure: (§1) Reporter Gene Experiments
(§2) Agonist activity was measured in Chinese hamster ovary (CHO) cells containing the CRE/SPAP/HYG (CRE=cyclic AMP response element; HYG=hygromycin resistance; SPAP=secreted placental alkaline phosphatase) reporter gene elements, which upon stimulation of cAMP levels produced SPAP. A cell line was used, which was stably transfected with either the human adenosine Al receptor or the human adenosine A3 receptor in addition to the above elements. Cells were plated out in 96-well plates in culture medium and incubated at 37° C. for 1 hour. For measurement of potency, agonists were added to the appropriate wells at a concentration range of approximately 10^−10-10^−5M. 15 Min later, cAMP levels were stimulated by addition of a maximal concentration of forskolin. All cells were then incubated for a further 5 hours at 37° C., and cooled to room temperature, after which a substrate for the phosphatase (para-nitrophenol phosphate, pNPP), which is converted by SPAP to a coloured reagent) was then added and the 96-well plates were read in a plate reader. From these readings, the concentration-dependence of the inhibition by the agonist for forskolin-stimulated SPAP production can be calculated. One of the agonists tested on each 96-well plate was the standard non-selective agonist, N-ethylcarboxamidoadenosine (NECA), and the potency of all test agonists is expressed relative to that of the NECA standard.
(§3) (ECR=equipotent concentration ratio relative to NECA=1)

[2] = target: T2, human adenosine A1 receptor (Homo sapiens, UniProt P30542); test: Reporter gene assay (CRE/SPAP) in CHO cells, agonist activity, adenosine A1; assay type: cell-based; settings: CHO cells stably transfected with human adenosine A1 receptor; inhibition of forskolin-stimulated SPAP production; potency relative to NECA=1
T2 construct: expressed in transfected cells; host or cells: Chinese hamster ovary (CHO) cells containing CRE/SPAP/HYG reporter elements
T2 sequence (P30542 1-326): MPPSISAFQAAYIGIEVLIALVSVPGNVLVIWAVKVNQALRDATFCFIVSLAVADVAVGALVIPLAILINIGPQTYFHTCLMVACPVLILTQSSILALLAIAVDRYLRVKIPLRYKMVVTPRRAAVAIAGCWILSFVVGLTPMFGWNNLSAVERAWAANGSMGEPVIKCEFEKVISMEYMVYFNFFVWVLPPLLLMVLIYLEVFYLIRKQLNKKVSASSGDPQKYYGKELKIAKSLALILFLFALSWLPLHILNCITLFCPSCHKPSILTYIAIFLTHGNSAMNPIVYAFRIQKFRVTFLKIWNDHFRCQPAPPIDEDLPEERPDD
Procedure: as §1
as §2, with “For measurement of potency, agonists were added to the appropriate wells at a concentration range of approximately 10^−10-10^−5M.” left out, “calculated.” for “calculated. One of the agonists tested on each 96-well plate was the standard non-selective agonist, N-ethylcarboxamidoadenosine (NECA), and the potency of all test agonists is expressed relative to that of the NECA standard.”
as §3

SMILES	A3 Receptor, Reporter Gene Assay ECR (equipotent concentration ratio relative to NECA=1) [1]	A1 Receptor, Reporter Gene Assay ECR (equipotent concentration ratio relative to NECA=1) [2]
CCNC(=O)N1CCC(Nc2nc(Cl)nc3c2ncn3[C@@H]2O[C@H](CF)[C@@H](O)[C@H]2O)CC1 [Example 29, 4-[2-Chloro-9-(5S-fluoromethyl-3R,4S-dihydroxy-tetrahydro-furan-2R-yl)-9H-purin-6-ylamino]-piperidine-1-carboxylic acid ethylamide]	>236.00	51.60
O[C@@H]1[C@H](O)[C@@H](CF)O[C@H]1n1cnc2c(NC3CC4CCC3C4)ncnc21 (stereo partly drawn) [Example 11, N-(endo-Bicyclo[2.2.1]hept-2-yl)-5′-deoxy-5′-fluoro-adenosine]	>152.00	
O[C@@H]1[C@H](O)[C@@H](CF)O[C@H]1n1cnc2c(NC3CC4CCC3C4)nc(Cl)nc21 (stereo partly drawn) [Example 8, N-(endo-Bicyclo[2.2.1]hept-2-yl)-2-chloro-5′-deoxy-5′-fluoro-adenosine]	>91.00	
O[C@@H]1[C@H](O)[C@@H](CF)O[C@H]1n1cnc2c(N[C@H]3CCC[C@@H]3O)ncnc21 [Example 13, 5′-Deoxy-5′-fluoro-N-(2S-hydroxy-cyclopent-(S)-yl)-adenosine]	>152.00	
O[C@@H]1[C@H](O)[C@@H](CF)O[C@H]1n1cnc2c(N[C@H]3CCC[C@@H]3O)nc(Cl)nc21 [Example 7, 2-Chloro-5′-deoxy-5′-fluoro-N-(2S-hydroxy-cyclopent-(S)-yl)adenosine]	>91.00	
O[C@@H]1[C@H](O)[C@@H](CF)O[C@H]1n1cnc2c(NC3CC4CCC3C4)nc(Cl)nc21 (stereo partly drawn) [Example 25, N-(exo-Bicyclo[2.2.1]hept-2-yl)-2-chloro-5′-deoxy-5′-fluoro-adenosine]	>151.00	
O=S1(=O)CCC(Nc2ncnc3c2ncn3[C@@H]2O[C@H](CF)[C@@H](O)[C@H]2O)CC1 [Example 27]	>162.00	
CCCCOC(=O)N1CCC(Nc2nc(Cl)nc3c2ncn3[C@@H]2O[C@H](CF)[C@@H](O)[C@H]2O)CC1 [Example 26, 4-[2-Chloro-9-(5S-fluoromethyl-3R,4S-dihydroxy-tetrahydro-furan-2R-yl)-9H-purin-6-ylamino]-piperidine-1-carboxylic acid butyl ester]	>233.00	4.50
O[C@@H]1[C@H](O)[C@@H](CF)O[C@H]1n1cnc2c(N[C@@H]3CCC[C@H]3F)nc(Cl)nc21 [Example 6, 2-Chloro-5-deoxy-5′-fluoro-N-(2R-fluoro-cyclopent-(R)-yl)-adenosine]	>156.00	

Further lines, results first:

A3 Receptor, Reporter Gene Assay ECR (equipotent concentration ratio relative to NECA=1) [1]	A1 Receptor, Reporter Gene Assay ECR (equipotent concentration ratio relative to NECA=1) [2]	SMILES
>240.00	7.29	OCC(O)CNc1nc(Cl)nc2c1ncn2[C@@H]1O[C@H](CF)[C@@H](O)[C@H]1O (stereo partly drawn) [Example 16, 2-Chloro-5′-deoxy-N-(2,3-dihydroxy-propyl)-5′-fluoro-adenosine]
	190.10	O[C@@H]1[C@H](O)[C@@H](C(F)(F)F)O[C@H]1n1cnc2c(NC3CCOCC3)nc(Cl)nc21 [Example 4, (2R,3 R,4S,5S)-2-[2-Chloro-6-(tetrahydro-pyran-4-ylamino)-purin-9-yl]-5-trifluoromethyl-tetrahydro-furan-3,4-diol]
>353.00	0.71	CNS(=O)(=O)CCNc1ncnc2c1ncn2[C@@H]1O[C@H](CF)[C@H](O)[C@H]1O [Example 18, 2-[9-(5S-Fluoromethyl-3R,4R-dihydroxy-tetrahydro-furan-2R-yl)-9H-purin-6-ylamino]-ethanesulfonic acid methylamide]
>257.00	7.14	CC(F)(F)[C@H]1O[C@@H](n2cnc3c(NC4CC5CCC4C5)ncnc32)[C@H](O)[C@@H]1O (stereo partly drawn) [Example 5, (2R,3R,4S,5S)-2-[6-(Bicyclo[2.2.1]hept-2-ylamino)-purin-9-yl]-5-(1,1-difluoro-ethyl)-tetrahydro-furan-3,4-diol]
48.90	11.20	CS(=O)(=O)N1CCC(Nc2nc(Cl)nc3c2ncn3[C@@H]2O[C@H](CF)[C@@H](O)[C@H]2O)CC1 [Example 23, 2-Chloro-5′-deoxy-5′-fluoro-N-(1-methanesulfonyl-piperidin-4-yl)-adenosine]
>233.00	7.83	CC(C)(C)CNc1nc(Cl)nc2c1ncn2[C@@H]1O[C@H](CF)[C@@H](O)[C@H]1O [Example 24, 2-Chloro-5′-deoxy-N-(2,2-dimethyl-propyl)-5′-fluoro-adenosine]
>145.00	3.30	CC(C)CNc1nc(Cl)nc2c1ncn2[C@@H]1O[C@H](CF)[C@@H](O)[C@H]1O [Example 22, 2-Chloro-5′-deoxy-5′-fluoro-N-isobutyl-adenosine]
>435.00	9.16	O=S1(=O)CCC(Nc2nc(Cl)nc3c2ncn3[C@@H]2O[C@H](CF)[C@@H](O)[C@H]2O)CC1 [Example 15, 2-Chloro-5′-deoxy-N-(1,1-dioxo-hexahydro-1δ6-thiopyran-4-yl)-5′-fluoro-adenosine]
>170.00	2.05	O[C@@H]1[C@H](O)[C@@H](CF)O[C@H]1n1cnc2c(Nc3ccc(Cl)cc3F)ncnc21 [Example 28, N-(4-Chloro-2-fluoro-phenyl)-5′-deoxy-5′-fluoro-adenosine]
>353.00	1.64	O[C@@H]1[C@H](O)[C@@H](CF)O[C@H]1n1cnc2c(NC3CCSCC3)ncnc21 [Example 21, 5′-Deoxy-5′-fluoro-N-(tetrahydro-thiopyran-4-yl)-adenosine]
>353.00	8.17	CC(C)(C)Nc1ncnc2c1ncn2[C@@H]1O[C@H](CF)[C@@H](O)[C@H]1O [Example 20, N-tert-Butyl-5′-deoxy-5′-fluoro-adenosine]
>226.00	11.8	Cc1nc(NC2CCOCC2)c2ncn([C@@H]3O[C@H](CF)[C@@H](O)[C@H]3O)c2n1 [Example 2, 5′-Deoxy-5′-fluoro-2-methyl-N-(tetrahydro-pyran-4-yl)-adenosine]
>162.00	66.80	CC(=O)N1CCC(Nc2nc(Cl)nc3c2ncn3[C@@H]2O[C@H](CF)[C@@H](O)[C@H]2O)CC1 [Example 10, 1-{4-[2-Chloro-9-(5S-fluoromethyl-3R,4S-dihydrox-tetrahydro-furan-2R-yl)-9H-purin-6-ylamino]-piperidin-1-yl}-ethanone]
